From publication PMC7460887, “Capsaicin-Cyclodextrin Complex Enhances Mepivacaine Targeting and Improves Local Anesthesia in Inflamed Tissues” (International Journal of Molecular Sciences, 2020)
≈ marks a conversion by molar mass, not a printed value. Where a name gives a salt, the structure may show the parent alone. Read-outs that look alike come from different tables or passages of the source.

Columns and labels:
[1] = cited from earlier work; for solubility increment of CAP: at least 10 times greater HP-β-CD concentrations; for Ks with HP-β-CD (from phase solubility study): LA base form
[2] = In vitro release, Franz-type vertical diffusion cell; assay type: physicochemical; conditions: 37 °C, PBS pH 7.4, n = 3
Protocol: A “Franz-type” vertical diffusion cell system was used to evaluate the in vitro release of CAP, comparing the free (dissolved in 20% ethanolic solution) and complexed drug with HP-β-CD [26]. The diffusion system consists of two compartments: the donor one—containing 1 mL of the sample—and the acceptor compartment, containing 12 mL of buffer (10 mM phosphate buffered saline, pH 7.4) kept at 37 °C, under mild stirring to ensure sink condition. A cellulose membrane (Spectrapore, Los Angeles, 1000 Da molecular exclusion pore) separated the two compartments. Aliquots (200 μL) were withdrawn from the acceptor compartment at fixed intervals (15, 30, […], 60, and 90 min, and every hour for 6 h) and the volume was replaced with fresh medium. CAP was quantified by HPLC, in a Waters Breeze 2 System (Waters, Milford, Massachussets, USA) at 280 nm and 30 °C, using a Luna® C18 (2) reverse phase (25 × 4.6 mm, 5 μm) (Phenomenex, Torrance, California, USA), 30-µL injection volume, phosphoric acid (1:1000 v/v) and acetonitrile (7:3 v:v), at pH 2.4, and 1.0 mL/min flow rate.

[3] = Phase solubility study of CAP with HP-β-CD; assay type: physicochemical
Protocol: The effects of HP-β-CD on the solubility of CAP was investigated according to the phase solubility method described by Higuchi and Connors. In this experiment increasing concentrations of CD (0–10 mM) were added to a saturated CAP solution. The solutions were left under magnetic stirring for 48 h (350 rpm and 25 °C). Aliquots of each vial were centrifuged for 10 min (4100× g) and the supernatant was filtered through 0.45 μm (Millipore, Burlington, Massachusetts, USA) and diluted to determine CAP concentration by UV absorption at 280 nm. The phase solubility diagram was obtained by plotting the solubility of CAP, versus the concentrations of HP-β-CD […]. The apparent stability constant (Ks) were calculated by Equation (1), where S0 is the aqueous molar solubility of the drug, taken from the Y intercept of the plot:(1) Ks=slope/S0(1−slope)
The complexation efficiency (CE) determines the adequate ratio of CDs to ensure maximum solubility of the complexed drug. For the CAP-HP-β-CD complex, CE was calculated from the phase solubility plots, according to Equation (2). The CE values allow drug/CD ratio in the formulation, according to Equation (3):(2) CE=slope/(1−slope) (3) Drug:CD=1/(CE+1)/CE

[4] = cited from earlier work
[5] = DOSY NMR diffusion, complexed fraction and association constant; assay type: physicochemical
Protocol: DOSY is an experiment that separates the signals of a mixture of components according to the size and shape of the molecules. DOSY experiments were conducted with the pulse sequence ledbpgp2s, with a time diffusion of 0.06 s. […] The average acquisition time of the experiment was 40 min. The processing program (Dosy Toolbox) was run with data transformed using fn = 32 K. The diffusion coefficient and standard deviation of each species was given by the arithmetic mean of all coefficients of the same species. DOSY allows determination of the association constant (Ka), between guest molecules and CDs. Ka values are inferred from the complexed fraction (Fcomplexed) of the guest molecule, and both values were calculated accordingly to Equations (4) and (5), where Ddrug is the diffusion coefficient of the free drug, Dcomplex is the diffusion coefficient of the complex, Dcyclodextrin is the diffusion coefficient of free CD, and R is the molar concentration of non-complexed CD [25]:(4) Fcomplexed=[Ddrug−Dcomplex]/[Ddrug−Dciclodextrin] (5) Ka=[Ddrug−Dcomplex]/[Ddrug−Dciclodextrin] × R

[6] = tested on: carrageenan-inflamed mice paw; assay: Analgesia in inflamed tissue, carrageenan-induced hyperalgesia, mechanical allodynia in mice hind paw; assay type: in vivo, Male Swiss mice; conditions: 2% solution, subplantar injection, 4 h after carrageenan
Protocol: The antinociceptive effect of the association between mepivacaine and complexed CAP (HP-β-CD-CAP) was evaluated in vivo. A sample of freeze-dried HP-β-CD-CAP was resuspended in 4 mL of mepivacaine hydrochloride solution (MVC) to final concentrations of 1.6 mM (0.05%) CAP and 2% MVC. MVC solution was previously sterilized by filtration 0.22 μm. (Millipore, Burlington, Massachusetts, USA). Male Swiss mice (30–35 g) were obtained from Centro de Bioterismo, University of Campinas, UNICAMP (CEMIB-UNICAMP, Campinas, São Paulo, Brazil) and housed in standard cages under a 12/12 h of light/dark cycle. All experiments were approved by the institutional animal care and use committee of Unicamp, meaning it follows the Brazilian national guideline, which is in line with the National Institutes of Health guide for the care and use of Laboratory animals (protocol # 4402-1).
The mechanical allodynia was analyzed in mice hind paw by a Dynamic Plantar Aesthesiometer (model 37450, Ugo Basile, Italy). The animals were placed in an elevated cage for 2 h before the test, for setting and training. […] The anesthetic formulations were then applied into the same subplantar region of the right paw of the mice, and the pain threshold was evaluated every 15 min. […] After the mechanical stimulus, the time elapsed until paw withdrawal as well as the applied pressure value were automatically recorded.

[7] = design: method as in PMID 19440843; conditions: pure HP-β-CD 15% m/w; cited from earlier work
[8] = complexation with HP-β-CD, DOSY-NMR

For `Clc1ccccc1C(c1ccccc1)(c1ccccc1)n1ccnc1` [clotrimazole], the “molecules of HP-β-CD demanded for optimal complexation” value (from here on “molecules of HP-β-CD demanded”) [1] is listed as 21 molecules.
In the case of `CC(C)(C)c1ccc(C(O)CCCN2CCC(C(O)(c3ccccc3)c3ccccc3)CC2)cc1` (centres unmarked) [terfenadine], the “molecules of HP-β-CD demanded” value [1] is listed as 4 molecules.
For `COc1cc(CNC(=O)CCCC/C=C/C(C)C)ccc1O` [CAP, Capsaicin], the “time of CAP release” value [2] was 5 h, the “improvement of apparent solubility of CAP” value [3] was “up to 20 times” and the “moles of HP-β-CD required per mole of drug to solubilize (D:CD, Equation (3))” value [3] was 4.2 mol. The solubility at 48 h ([3]; 25 °C, aqueous with cosolvent or surfactant or cyclodextrin, thermodynamic from solid) was 2200 µM (≈ 672 µg/mL), the “diffusion coefficient (D)” value [4] was 4.81 × 10^−10 m^2s^−1 and the “diffusion coefficient (D)” value [5] was 4.94 × 10^−10 m^2s^−1. The “solubility increment of CAP” value ([1]; at 27 °C) was 160 times and the “solubility increment of CAP” value ([1]; at 37 °C) was 147 times.
For `CCCCN1CCCC[C@H]1C(=O)Nc1c(C)cccc1C` [S-bupivacaine], the “association constant (Ka)” value [4, 8] is given as 91 M⁻¹ and the “complexed fraction (Fcomplexed)” value [4, 8] is given as 57%.
In the case of `CCCCN1CCCCC1C(=O)Nc1c(C)cccc1C` (centres unmarked) [bupivacaine], the “Ks with HP-β-CD (from phase solubility study)” value [1] is given as 95 M⁻¹.
For `Clc1ccc(COC(Cn2ccnc2)c2ccc(Cl)cc2Cl)c(Cl)c1` (centres unmarked) [miconazole], the “molecules of HP-β-CD demanded” value [1] is given as 12 molecules.
For `Cc1cccc(C)c1NC(=O)C1CCCCN1C` (centres unmarked) [mepivacaine], the “Ks with HP-β-CD (from phase solubility study)” value [1] is given as 38 M⁻¹.
For `Cc1cccc(C)c1NC(=O)C1CCCCN1C` (centres unmarked) [MVC, mepivacaine hydrochloride], the “induction of anesthesia in inflamed paw” value [6] was “did not induce anesthesia in mice at any time tested”.
In the case of hydroxypropyl-β-cyclodextrin [HP-β-CD], the “diffusion coefficient (D)” value [4] is given as 2.21 × 10^−10 m^2s^−1, the “diffusion coefficient (D)” value [5] is given as 2.00 × 10^−10 m^2s^−1 and the “HP-β-CD concentration above which aggregates start” value [1] is given as “higher than 12 mM”. The “collapse temperature (Tc)” value [7] was −9.5 °C.
